Laboratory results taken from paper PMC4490784, “Compensatory induction of MYC expression by sustained CDK9 inhibition via a BRD4-dependent mechanism” (eLife, 2015).

Legend:
Experiment in all cases: KINOMEscan binding assay
FES = target: T1, FES (Homo sapiens, UniProt P07332); conditions: read-out: % Retention on Solid Support
T1 construct: purchased DiscoveRx KINOMEscan
In short: (§1)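 Kinome-wide competition binding assay (active site-directed), i-CDK9 tested at 1 µM and 10 µM, >400 targets.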

BRSK1 = target: T2, BRSK1 (Homo sapiens, UniProt Q8TDC3); conditions: read-out: % Retention on Solid Support
T2 construct: purchased DiscoveRx KINOMEscan
In short: as §1

CDK7 = target: T3, CDK7 (Homo sapiens, UniProt P50613); conditions: read-out: % Retention on Solid Support
T3 construct: purchased DiscoveRx KINOMEscan
In short: as §1

SNRK = target: T4, SNRK (Homo sapiens, UniProt Q9NRH2); conditions: 1 µM i-CDK9; read-out: % Retention on Solid Support
T4 construct: purchased DiscoveRx KINOMEscan
In short: as §1

PCTK1 = target: T5, PCTK1 (Homo sapiens, UniProt Q00536); conditions: read-out: % Retention on Solid Support
T5 construct: purchased DiscoveRx KINOMEscan
In short: as §1

CSK = target: T6, CSK (Homo sapiens, UniProt P41240)
T6 construct: purchased DiscoveRx KINOMEscan
In short: as §1

ALK = target: T7, ALK (Homo sapiens, UniProt Q9UM73); conditions: read-out: % Retention on Solid Support
T7 construct: purchased DiscoveRx KINOMEscan
In short: as §1

AKT1 = target: T8, AKT1 (Homo sapiens, UniProt P31749); conditions: read-out: % Retention on Solid Support
T8 construct: purchased DiscoveRx KINOMEscan
In short: as §1

YSK4 = target: T9, YSK4 (Homo sapiens, UniProt Q56UN5); conditions: read-out: % Retention on Solid Support
T9 construct: purchased DiscoveRx KINOMEscan
In short: as §1

PKMYT1 = target: T10, PKMYT1 (Homo sapiens, UniProt Q99640)
T10 construct: purchased DiscoveRx KINOMEscan
In short: as §1

PLK1 = target: T11, PLK1 (Homo sapiens, UniProt P53350); conditions: read-out: % Retention on Solid Support
T11 construct: purchased DiscoveRx KINOMEscan
In short: as §1

PIP5K1A = target: T12, PIP5K1A (Homo sapiens, UniProt Q99755); conditions: read-out: % Retention on Solid Support
T12 construct: purchased DiscoveRx KINOMEscan
In short: as §1

NEK6 = target: T13, NEK6 (Homo sapiens, UniProt Q9HC98); conditions: read-out: % Retention on Solid Support
T13 construct: purchased DiscoveRx KINOMEscan
In short: as §1

LOK = target: T14, LOK (Homo sapiens, UniProt O94804)
T14 construct: purchased DiscoveRx KINOMEscan
In short: as §1

CDKL2 = target: T15, CDKL2 (Homo sapiens, UniProt Q92772); conditions: read-out: % Retention on Solid Support
T15 construct: purchased DiscoveRx KINOMEscan
In short: as §1

PIM3 = target: T16, PIM3 (Homo sapiens, UniProt Q86V86); conditions: read-out: % Retention on Solid Support
T16 construct: purchased DiscoveRx KINOMEscan
In short: as §1

KIT(V559D,V654A) = target: T17, KIT(V559D,V654A) (Homo sapiens, UniProt P10721, V559D/V654A); conditions: read-out: % Retention on Solid Support
T17 construct: purchased DiscoveRx KINOMEscan
In short: as §1

CHEK1 = target: T18, CHEK1 (Homo sapiens, UniProt O14757)
T18 construct: purchased DiscoveRx KINOMEscan
In short: as §1

BRAF = target: T19, BRAF (Homo sapiens, UniProt P15056); conditions: read-out: % Retention on Solid Support
T19 construct: purchased DiscoveRx KINOMEscan
In short: as §1

ZAK = target: T20, ZAK (Homo sapiens, UniProt Q9NYL2); conditions: read-out: % Retention on Solid Support
T20 construct: purchased DiscoveRx KINOMEscan
In short: as §1

[1] = target: T21, ABL1(Q252H)-phosphorylated (Homo sapiens, UniProt P00519, Q252H); conditions: 1 µM i-CDK9; read-out: % Retention on Solid Support
T21 construct: purchased DiscoveRx KINOMEscan
In short: as §1

BLK = target: T22, BLK (Homo sapiens, UniProt P51451); conditions: read-out: % Retention on Solid Support
T22 construct: purchased DiscoveRx KINOMEscan
In short: as §1

FLT3(K663Q) = target: T23, FLT3(K663Q) (Homo sapiens, UniProt P36888, K663Q); conditions: read-out: % Retention on Solid Support
T23 construct: purchased DiscoveRx KINOMEscan
In short: as §1

SRPK3 = target: T24, SRPK3 (Homo sapiens, UniProt Q9UPE1); conditions: read-out: % Retention on Solid Support
T24 construct: purchased DiscoveRx KINOMEscan
In short: as §1

BMPR2 = target: T25, BMPR2 (Homo sapiens, UniProt Q13873)
T25 construct: purchased DiscoveRx KINOMEscan
In short: as §1

NEK5 = target: T26, NEK5 (Homo sapiens, UniProt Q6P3R8); conditions: read-out: % Retention on Solid Support
T26 construct: purchased DiscoveRx KINOMEscan
In short: as §1

PHKG2 = target: T27, PHKG2 (Homo sapiens, UniProt P15735); conditions: read-out: % Retention on Solid Support
T27 construct: purchased DiscoveRx KINOMEscan
In short: as §1

TNNI3K = target: T28, TNNI3K (Homo sapiens, UniProt Q59H18); conditions: read-out: % Retention on Solid Support
T28 construct: purchased DiscoveRx KINOMEscan
In short: as §1

[2] = target: T29, ABL1(F317I)-nonphosphorylated (Homo sapiens, UniProt P00519, F317I); conditions: read-out: % Retention on Solid Support
T29 construct: purchased DiscoveRx KINOMEscan
In short: as §1

RIOK2 = target: T30, RIOK2 (Homo sapiens, UniProt Q9BVS4); conditions: read-out: % Retention on Solid Support
T30 construct: purchased DiscoveRx KINOMEscan
In short: as §1

T8 sequence (P31749 whole entry): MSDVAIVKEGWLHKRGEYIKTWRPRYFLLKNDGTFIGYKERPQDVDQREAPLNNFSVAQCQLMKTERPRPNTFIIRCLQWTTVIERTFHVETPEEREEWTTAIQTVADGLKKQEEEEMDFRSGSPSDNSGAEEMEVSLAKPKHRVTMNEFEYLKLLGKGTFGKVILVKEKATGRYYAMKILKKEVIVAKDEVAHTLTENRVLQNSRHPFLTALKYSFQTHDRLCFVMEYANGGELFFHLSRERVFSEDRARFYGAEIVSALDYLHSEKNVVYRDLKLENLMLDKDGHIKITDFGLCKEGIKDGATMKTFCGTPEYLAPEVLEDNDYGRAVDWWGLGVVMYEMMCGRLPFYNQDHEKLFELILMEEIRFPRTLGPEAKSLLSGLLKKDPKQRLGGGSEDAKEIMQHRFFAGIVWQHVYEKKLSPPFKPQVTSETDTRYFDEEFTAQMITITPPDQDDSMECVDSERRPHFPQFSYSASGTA
T14 sequence (O94804 whole entry): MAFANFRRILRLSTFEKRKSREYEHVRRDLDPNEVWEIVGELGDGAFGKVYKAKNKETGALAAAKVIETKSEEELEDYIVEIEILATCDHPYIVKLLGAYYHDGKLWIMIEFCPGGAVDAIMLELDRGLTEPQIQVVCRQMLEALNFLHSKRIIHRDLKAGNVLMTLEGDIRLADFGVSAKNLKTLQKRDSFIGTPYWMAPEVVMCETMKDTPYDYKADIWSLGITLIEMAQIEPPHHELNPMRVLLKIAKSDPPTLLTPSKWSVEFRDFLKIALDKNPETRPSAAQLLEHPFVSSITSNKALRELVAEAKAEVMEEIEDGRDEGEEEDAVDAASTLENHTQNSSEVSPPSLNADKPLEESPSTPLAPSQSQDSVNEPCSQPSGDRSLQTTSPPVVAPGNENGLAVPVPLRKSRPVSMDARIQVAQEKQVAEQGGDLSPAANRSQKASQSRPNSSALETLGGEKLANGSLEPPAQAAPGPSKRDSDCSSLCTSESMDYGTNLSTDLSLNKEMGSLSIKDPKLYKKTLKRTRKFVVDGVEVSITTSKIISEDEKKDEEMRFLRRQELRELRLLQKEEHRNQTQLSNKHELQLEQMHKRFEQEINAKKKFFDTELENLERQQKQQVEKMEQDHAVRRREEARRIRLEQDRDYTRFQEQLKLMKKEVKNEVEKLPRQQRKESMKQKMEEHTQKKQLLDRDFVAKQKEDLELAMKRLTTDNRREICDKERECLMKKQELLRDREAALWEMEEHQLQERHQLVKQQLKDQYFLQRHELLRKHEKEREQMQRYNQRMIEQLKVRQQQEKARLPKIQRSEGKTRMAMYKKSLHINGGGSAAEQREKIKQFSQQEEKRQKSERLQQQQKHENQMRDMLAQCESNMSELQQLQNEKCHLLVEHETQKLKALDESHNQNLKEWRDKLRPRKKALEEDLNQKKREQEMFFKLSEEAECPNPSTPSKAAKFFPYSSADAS
T1 sequence (P07332 whole entry): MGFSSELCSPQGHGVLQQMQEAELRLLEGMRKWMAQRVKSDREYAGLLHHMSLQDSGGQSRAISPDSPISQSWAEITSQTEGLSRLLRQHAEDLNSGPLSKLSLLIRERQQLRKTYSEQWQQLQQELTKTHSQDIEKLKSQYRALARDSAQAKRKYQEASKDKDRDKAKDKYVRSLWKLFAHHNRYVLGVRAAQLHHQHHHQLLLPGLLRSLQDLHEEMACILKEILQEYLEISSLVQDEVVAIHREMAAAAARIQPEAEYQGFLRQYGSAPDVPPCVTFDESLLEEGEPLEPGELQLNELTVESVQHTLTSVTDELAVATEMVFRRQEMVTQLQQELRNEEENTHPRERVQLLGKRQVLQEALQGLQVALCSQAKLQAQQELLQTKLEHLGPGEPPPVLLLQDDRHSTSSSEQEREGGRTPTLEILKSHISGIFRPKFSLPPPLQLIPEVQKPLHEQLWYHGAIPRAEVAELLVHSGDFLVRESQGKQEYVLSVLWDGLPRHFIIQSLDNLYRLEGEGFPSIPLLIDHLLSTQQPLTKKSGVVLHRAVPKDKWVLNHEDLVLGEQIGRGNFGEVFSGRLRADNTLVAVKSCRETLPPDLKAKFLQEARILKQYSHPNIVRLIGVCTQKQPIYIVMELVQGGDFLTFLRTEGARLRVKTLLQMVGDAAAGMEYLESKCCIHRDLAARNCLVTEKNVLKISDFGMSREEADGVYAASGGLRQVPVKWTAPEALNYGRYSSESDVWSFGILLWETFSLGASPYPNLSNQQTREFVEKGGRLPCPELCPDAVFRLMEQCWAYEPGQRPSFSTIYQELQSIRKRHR
T11 sequence (P53350 whole entry): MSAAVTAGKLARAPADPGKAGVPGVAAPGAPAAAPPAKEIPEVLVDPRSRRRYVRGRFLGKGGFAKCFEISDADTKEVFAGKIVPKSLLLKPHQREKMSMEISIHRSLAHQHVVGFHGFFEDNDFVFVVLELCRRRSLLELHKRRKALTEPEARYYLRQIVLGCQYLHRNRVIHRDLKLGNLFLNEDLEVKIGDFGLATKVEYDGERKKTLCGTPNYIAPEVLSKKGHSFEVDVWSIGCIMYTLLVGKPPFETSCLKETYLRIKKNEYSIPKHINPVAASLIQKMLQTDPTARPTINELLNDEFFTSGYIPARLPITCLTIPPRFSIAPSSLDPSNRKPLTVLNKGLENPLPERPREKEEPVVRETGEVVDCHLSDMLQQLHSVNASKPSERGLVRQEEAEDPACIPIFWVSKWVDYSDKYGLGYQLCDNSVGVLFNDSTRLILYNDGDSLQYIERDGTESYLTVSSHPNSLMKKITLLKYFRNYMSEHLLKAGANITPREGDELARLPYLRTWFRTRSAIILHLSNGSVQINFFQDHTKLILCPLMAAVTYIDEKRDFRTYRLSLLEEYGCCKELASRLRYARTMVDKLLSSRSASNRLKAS
T9 sequence (Q56UN5 whole entry): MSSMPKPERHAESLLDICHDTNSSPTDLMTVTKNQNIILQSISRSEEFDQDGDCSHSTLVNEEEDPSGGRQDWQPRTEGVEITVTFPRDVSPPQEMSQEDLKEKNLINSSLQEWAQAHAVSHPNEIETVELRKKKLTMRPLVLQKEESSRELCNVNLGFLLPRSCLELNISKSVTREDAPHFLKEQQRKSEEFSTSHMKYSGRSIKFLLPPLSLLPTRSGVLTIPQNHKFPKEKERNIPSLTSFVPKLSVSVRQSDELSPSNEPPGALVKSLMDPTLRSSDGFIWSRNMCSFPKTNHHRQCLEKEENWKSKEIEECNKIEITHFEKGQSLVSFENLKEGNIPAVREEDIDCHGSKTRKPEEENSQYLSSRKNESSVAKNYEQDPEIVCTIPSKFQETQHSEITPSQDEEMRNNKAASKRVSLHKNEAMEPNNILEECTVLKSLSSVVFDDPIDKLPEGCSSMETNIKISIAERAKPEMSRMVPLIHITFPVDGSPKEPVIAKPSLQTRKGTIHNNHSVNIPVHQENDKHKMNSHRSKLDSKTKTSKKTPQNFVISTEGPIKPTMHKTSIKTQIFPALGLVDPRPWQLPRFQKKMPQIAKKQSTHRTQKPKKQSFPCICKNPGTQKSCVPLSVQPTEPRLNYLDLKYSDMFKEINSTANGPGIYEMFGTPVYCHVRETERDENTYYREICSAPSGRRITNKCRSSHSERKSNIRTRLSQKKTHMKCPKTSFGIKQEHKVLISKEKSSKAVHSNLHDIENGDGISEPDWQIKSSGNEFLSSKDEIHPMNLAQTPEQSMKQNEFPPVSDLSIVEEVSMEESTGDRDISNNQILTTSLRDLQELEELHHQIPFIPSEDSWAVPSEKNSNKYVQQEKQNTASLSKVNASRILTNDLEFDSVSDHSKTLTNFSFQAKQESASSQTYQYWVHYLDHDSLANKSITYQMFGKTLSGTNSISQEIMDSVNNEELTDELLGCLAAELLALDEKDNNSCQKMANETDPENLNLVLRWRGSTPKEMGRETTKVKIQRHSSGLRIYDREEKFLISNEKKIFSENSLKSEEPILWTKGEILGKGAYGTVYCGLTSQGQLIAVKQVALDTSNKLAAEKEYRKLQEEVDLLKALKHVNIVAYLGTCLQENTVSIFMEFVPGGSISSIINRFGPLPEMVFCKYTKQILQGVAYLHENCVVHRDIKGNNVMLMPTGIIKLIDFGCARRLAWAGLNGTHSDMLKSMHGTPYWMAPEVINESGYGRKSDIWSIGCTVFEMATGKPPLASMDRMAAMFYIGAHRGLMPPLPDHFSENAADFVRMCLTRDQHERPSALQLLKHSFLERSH
T15 sequence (Q92772 whole entry): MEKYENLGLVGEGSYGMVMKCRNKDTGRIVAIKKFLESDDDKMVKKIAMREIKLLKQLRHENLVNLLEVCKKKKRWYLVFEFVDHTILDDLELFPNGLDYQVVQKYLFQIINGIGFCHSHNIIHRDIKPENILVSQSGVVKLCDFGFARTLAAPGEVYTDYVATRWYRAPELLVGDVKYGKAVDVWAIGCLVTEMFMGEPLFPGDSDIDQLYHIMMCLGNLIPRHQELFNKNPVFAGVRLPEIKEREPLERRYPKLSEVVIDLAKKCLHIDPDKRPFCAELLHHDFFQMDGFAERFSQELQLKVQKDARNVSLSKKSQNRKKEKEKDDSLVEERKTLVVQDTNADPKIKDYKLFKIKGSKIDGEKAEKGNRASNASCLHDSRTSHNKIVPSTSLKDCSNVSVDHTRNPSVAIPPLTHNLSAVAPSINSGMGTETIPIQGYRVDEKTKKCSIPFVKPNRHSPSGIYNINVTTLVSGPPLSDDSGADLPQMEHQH
T13 sequence (Q9HC98 whole entry): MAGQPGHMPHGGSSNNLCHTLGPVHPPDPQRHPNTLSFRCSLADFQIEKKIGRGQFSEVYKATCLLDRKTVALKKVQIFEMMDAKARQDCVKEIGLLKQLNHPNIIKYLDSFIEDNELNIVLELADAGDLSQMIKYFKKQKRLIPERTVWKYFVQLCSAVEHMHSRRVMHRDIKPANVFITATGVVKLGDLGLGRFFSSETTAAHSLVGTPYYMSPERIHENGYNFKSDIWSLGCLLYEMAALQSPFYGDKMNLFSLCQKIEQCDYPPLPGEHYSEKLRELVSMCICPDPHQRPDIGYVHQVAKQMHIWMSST

Structure (SMILES): N[C@H]1CC[C@H](Nc2cc(-c3cccc(NCc4cccc(F)c4)n3)c(Cl)cn2)CC1 [i-CDK9, N2′-(trans-4-aminocyclohexyl)-5′-chloro-N6-(3-fluorobenzyl)-2,4′-bipyridine-2′,6-diamine]
- remaining binding at 1 µM (FES; 1 µM i-CDK9): 97%
- remaining binding at 10 µM (FES; 10 µM i-CDK9): 90%
- remaining binding at 1 µM (BRSK1; 1 µM i-CDK9): 100%
- remaining binding at 10 µM (BRSK1; 10 µM i-CDK9): 89%
- remaining binding at 1 µM (CDK7; 1 µM i-CDK9): 14%
- remaining binding at 10 µM (CDK7; 10 µM i-CDK9): 11%
- remaining binding at 1 µM (SNRK): 64%
- remaining binding at 1 µM (PCTK1; 1 µM i-CDK9): 19%
- remaining binding at 10 µM (PCTK1; 10 µM i-CDK9): 0.85%
- % Retention on Solid Support (CSK; 1 µM i-CDK9): 100%
- % Retention on Solid Support (CSK; 10 µM i-CDK9): 100%
- remaining binding at 1 µM (ALK; 1 µM i-CDK9): 86%
- remaining binding at 10 µM (ALK; 10 µM i-CDK9): 70%
- remaining binding at 1 µM (AKT1; 1 µM i-CDK9): 100%
- remaining binding at 10 µM (AKT1; 10 µM i-CDK9): 100%
- remaining binding at 1 µM (YSK4; 1 µM i-CDK9): 100%
- remaining binding at 10 µM (YSK4; 10 µM i-CDK9): 68%
- % Retention on Solid Support (PKMYT1; 1 µM i-CDK9): 100%
- % Retention on Solid Support (PKMYT1; 10 µM i-CDK9): 93%
- remaining binding at 1 µM (PLK1; 1 µM i-CDK9): 100%
- remaining binding at 10 µM (PLK1; 10 µM i-CDK9): 92%
- remaining binding at 1 µM (PIP5K1A; 1 µM i-CDK9): 83%
- remaining binding at 10 µM (PIP5K1A; 10 µM i-CDK9): 99%
- remaining binding at 1 µM (NEK6; 1 µM i-CDK9): 70%
- remaining binding at 10 µM (NEK6; 10 µM i-CDK9): 100%
- % Retention on Solid Support (LOK; 1 µM i-CDK9): 89%
- % Retention on Solid Support (LOK; 10 µM i-CDK9): 100%
- remaining binding at 1 µM (CDKL2; 1 µM i-CDK9): 80%
- remaining binding at 10 µM (CDKL2; 10 µM i-CDK9): 14%
- remaining binding at 1 µM (PIM3; 1 µM i-CDK9): 100%
- remaining binding at 10 µM (PIM3; 10 µM i-CDK9): 23%
- remaining binding at 1 µM (KIT(V559D,V654A); 1 µM i-CDK9): 100%
- remaining binding at 10 µM (KIT(V559D,V654A); 10 µM i-CDK9): 75%
- % Retention on Solid Support (CHEK1; 1 µM i-CDK9): 100%
- % Retention on Solid Support (CHEK1; 10 µM i-CDK9): 82%
- remaining binding at 1 µM (BRAF; 1 µM i-CDK9): 100%
- remaining binding at 10 µM (BRAF; 10 µM i-CDK9): 70%
- remaining binding at 1 µM (ZAK; 1 µM i-CDK9): 100%
- remaining binding at 10 µM (ZAK; 10 µM i-CDK9): 93%
- remaining binding at 1 µM [1]: 100%
- remaining binding at 1 µM (BLK; 1 µM i-CDK9): 100%
- remaining binding at 10 µM (BLK; 10 µM i-CDK9): 100%
- remaining binding at 1 µM (FLT3(K663Q); 1 µM i-CDK9): 100%
- remaining binding at 10 µM (FLT3(K663Q); 10 µM i-CDK9): 74%
- remaining binding at 1 µM (SRPK3; 1 µM i-CDK9): 100%
- remaining binding at 10 µM (SRPK3; 10 µM i-CDK9): 100%
- % Retention on Solid Support (BMPR2; 1 µM i-CDK9): 100%
- % Retention on Solid Support (BMPR2; 10 µM i-CDK9): 100%
- remaining binding at 1 µM (NEK5; 1 µM i-CDK9): 88%
- remaining binding at 10 µM (NEK5; 10 µM i-CDK9): 100%
- remaining binding at 1 µM (PHKG2; 1 µM i-CDK9): 100%
- remaining binding at 10 µM (PHKG2; 10 µM i-CDK9): 72%
- remaining binding at 1 µM (TNNI3K; 1 µM i-CDK9): 81%
- remaining binding at 10 µM (TNNI3K; 10 µM i-CDK9): 100%
- remaining binding at 1 µM ([2]; 1 µM i-CDK9): 99%
- remaining binding at 10 µM ([2]; 10 µM i-CDK9): 75%
- remaining binding at 1 µM (RIOK2; 1 µM i-CDK9): 100%
- remaining binding at 10 µM (RIOK2; 10 µM i-CDK9): 32%
